Here are results for seven molecules from patent EP3964221A1, “ANTIVIRAL AGENTS” (priority 2020, dated 2022).

Molecules are shown by their SMILES. Where two headings read alike, the source gives them in different places.

One assay has as its system Herpes simplex. Particulars: added to the assays after infection; cited from earlier work.
The test system of assay [1] is Influenza A virus (Flu A, H1N1). Kind of assay: Curative approach, plaque reduction assay. The format is cell-based. For orientation: In a plaque reduction assay, fewer plaques than in the control indicate reduced infectivity or spread.
Assay [2] has as its system Rhinovirus (RV, subtype 14). Kind of assay: Curative approach, plaque reduction assay. The format is cell-based. Particulars: active control at concentrations between 5-50 µg mL^-1.
For assay [3], the system named is Respiratory Syncytial Virus (RSV, type long strain). Kind of assay: Curative approach, plaque reduction assay. The format is cell-based. Particulars: active control at concentrations between 5-50 µg mL^-1.
Assay [4] concerns Influenza A virus (Flu A, H1N1). The assay is described as follows: Virucidal (preventive) approach, pretreatment of cell-free virus, plaque forming units. The format is cell-based. Particulars: positive control at 0.3%; 2 and 24 h incubation.
The test system of assay [5] is Rhinovirus (RV, subtype 14). Described as above. The format is cell-based. Particulars: positive control at 0.3%; 2 and 24 h incubation.
Assay [6] deals with Respiratory Syncytial Virus (RSV, type long strain). The description is as above. Format: cell-based. Particulars: positive control at 0.3%; 2 and 24 h incubation.
Assay [7] concerns Adenovirus C (AV, subtype 5). The format is cell-based. Particulars: positive control at 0.3%.

On to `CC12CCC(CC1)C(C)(C)O2` [1,8-cineol], for which the “reduction of Herpes simplex induced plaques” value (“reduction” below) with Herpes simplex was 30-40%.
With `NC(=O)c1ncn([C@@H]2O[C@H](CO)[C@@H](O)[C@H]2O)n1` [Ribavirin, ribavirin], the “plaque formation (visual, Fig. 3)” value in assay [1] (active control) is “prevented plaque formation almost completely”. Besides, the inhibited plaque formation in assay [1] (active control at concentrations between 5-50 µg mL^-1), in assay [2] and in assay [3] was 70-96% each time.
On to `CCCCCCCCCCCCOS(=O)(=O)[O-].[Na+]` [SDS, Sodium dodecyl sulfate], for which the lowered infectivity is 56-100% in assay [4]; 56-100% in assay [5]; 56-100% in assay [6]; 52% in assay [7] (2 h incubation); 63% in assay [7] (24 h incubation).
With `Nc1nc2c(ncn2COCCO)c(=O)[nH]1` [acyclovir], the “reduction” value with Herpes simplex is 100%.
For `C=C(C)[C@H]1CC=C(C)CC1` [limonene], the “reduction” value in the assay on Herpes simplex is on record as 10-20%.
Turning to `CC1=CCC2CC1C2(C)C` (stereo not drawn) [α-pinene], the “reduction” value in the assay on Herpes simplex is 30-40%.
In the case of `C=C1CCC2CC1C2(C)C` (stereo not drawn) [β-pinene], the “reduction” value with Herpes simplex is reported as 10-20%.
